{
  "source": "paper PMC11494886",
  "about": "“Discovery and design of molecular glue enhancers of CDK12–DDB1 interactions for targeted degradation of cyclin K” (RSC Chemical Biology, 2024)",
  "format_in_all_cases": "binding",
  "key": {"DDB1": {"target": "T1, DDB1 (Homo sapiens, UniProt Q16531, DEL396-705)", "T1 construct": "made in house; host or cells: Spodoptera frugiperda SF9 insect cells (Bac-to-Bac)", "T1 sequence (Q16531 with tags, fused parts or gaps DEL396-705)": "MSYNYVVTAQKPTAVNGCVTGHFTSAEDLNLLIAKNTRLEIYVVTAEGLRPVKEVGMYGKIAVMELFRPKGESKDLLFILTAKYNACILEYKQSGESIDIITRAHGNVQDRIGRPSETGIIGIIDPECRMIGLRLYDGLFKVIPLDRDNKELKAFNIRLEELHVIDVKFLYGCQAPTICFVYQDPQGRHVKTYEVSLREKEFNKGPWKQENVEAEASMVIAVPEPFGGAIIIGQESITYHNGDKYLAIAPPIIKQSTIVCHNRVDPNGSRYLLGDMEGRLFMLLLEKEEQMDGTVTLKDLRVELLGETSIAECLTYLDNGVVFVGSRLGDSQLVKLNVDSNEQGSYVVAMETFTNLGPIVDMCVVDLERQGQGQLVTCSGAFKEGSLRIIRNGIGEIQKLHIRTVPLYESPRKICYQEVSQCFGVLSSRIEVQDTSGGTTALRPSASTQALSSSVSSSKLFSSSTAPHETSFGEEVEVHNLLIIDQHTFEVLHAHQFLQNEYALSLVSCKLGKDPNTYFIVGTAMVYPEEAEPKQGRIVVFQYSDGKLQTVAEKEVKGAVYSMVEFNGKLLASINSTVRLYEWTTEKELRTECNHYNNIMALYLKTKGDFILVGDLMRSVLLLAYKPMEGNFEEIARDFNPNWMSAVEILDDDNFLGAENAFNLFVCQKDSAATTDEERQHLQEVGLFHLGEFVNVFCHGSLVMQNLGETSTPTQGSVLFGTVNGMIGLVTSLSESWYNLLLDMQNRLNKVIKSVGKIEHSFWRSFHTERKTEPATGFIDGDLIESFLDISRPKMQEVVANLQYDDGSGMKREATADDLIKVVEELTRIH", "assay": "Microscale thermophoresis, DDB1 without CDK12/cyclin K", "details": "MST, absence of CDK12/cyclin K", "description": "Finally, the capacity of small molecules to induce a ternary complex between CDK12/cyclin K and DDB1 in vitro was assessed by microscale thermophoresis (MST). […]\nThe gene of human DDB1 (Uniprot: Q16531) with a beta-propeller B domain deletion (ΔBPB: a.a. 396–705 deleted) was subcloned into pFastBac1 vector with an N-terminal His8-tag and a HRV 3C cleavage site (GeneScript), and the recombinant protein was expressed in Spodoptera frugiperda SF9 insect cells in sf900™ II SFM culture medium using the Bac to Bac™ baculovirus expression system (Gibco™). […]\nA protocol to assess ternary binding of molecular glues with CDK12/cycK and DDB1 by MST was established using published procedures for PROTAC interaction with bromodomains and E3 ubiquitin ligases.[38] […] After 5 min incubation at room temperature, the samples were loaded in MO-K022 standard treated capillaries (NanoTemper Technologies) and measured by a Monolith NT.115 Pico instrument (NanoTemper Technologies) at 40% MST power and 20% excitation power (auto-detect) on Pico-Red detector at 22 °C. MST traces were recorded using standard parameters: 5 s MST power off, 30 s MST power on and 5 s MST power off. […]"}, "Cdk12/CycK and DDB1ΔB": {"target": "T2, Cdk12/CycK and DDB1ΔB (Homo sapiens, UniProt Q16531+Q9NYV4, DEL396-705)", "T2 construct": "the Cdk12 (714–1063)/CycK (1–267) complex and the DDB1ΔB protein; made in house; host or cells: Sf9 insect cells (MultiBacTurbo)", "T2 sequence (Q9NYV4 714-1063, stated change not applied)": "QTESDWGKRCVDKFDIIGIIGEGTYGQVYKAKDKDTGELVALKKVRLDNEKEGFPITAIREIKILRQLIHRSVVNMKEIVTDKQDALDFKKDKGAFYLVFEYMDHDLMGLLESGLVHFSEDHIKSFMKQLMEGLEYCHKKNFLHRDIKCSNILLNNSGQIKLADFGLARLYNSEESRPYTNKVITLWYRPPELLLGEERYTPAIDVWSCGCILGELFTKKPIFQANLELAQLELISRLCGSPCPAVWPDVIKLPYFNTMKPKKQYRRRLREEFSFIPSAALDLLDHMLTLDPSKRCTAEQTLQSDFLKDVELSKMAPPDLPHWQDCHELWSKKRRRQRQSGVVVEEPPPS", "T2 sequence (O75909 1-267 partner limits assumed)": "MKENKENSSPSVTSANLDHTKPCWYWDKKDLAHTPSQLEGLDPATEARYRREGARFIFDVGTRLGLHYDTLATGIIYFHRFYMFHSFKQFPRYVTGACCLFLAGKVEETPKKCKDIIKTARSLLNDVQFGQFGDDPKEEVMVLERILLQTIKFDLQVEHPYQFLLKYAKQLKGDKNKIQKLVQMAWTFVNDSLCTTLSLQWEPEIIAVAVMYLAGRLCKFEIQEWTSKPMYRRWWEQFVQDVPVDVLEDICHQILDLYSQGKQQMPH", "T2 sequence (Q16531 with tags, fused parts or gaps DEL396-705)": "as the sequence (Q16531 with tags, fused parts or gaps DEL396-705) above", "assay": "Dynamic light scattering of SEC peak fractions", "details": "SEC peak middle fractions, vs negative controls", "description": "To evaluate particle size distribution in liquid solution, dynamic light scattering was employed. Specifically, 10 μL fractions from the central region of peaks obtained in analytical size exclusion chromatography runs were analyzed. This analysis was performed using a DynaPro NanoStar 672 (Wyatt Technology) in a disposable DLS MicroCuvette (Wyatt Technology), while maintaining a constant temperature of 25 °C. Each measurement was conducted with an acquisition time of 3 s, and each data point depicted in the Results section represents the average of 20 individual DLS measurements. The hydrodynamic radius of the protein samples was determined using the processing and analysis software DYNAMICS."}, "CDK12/cyclin K + DDB1": {"target": "T3, CDK12/cyclin K + DDB1 (Homo sapiens, UniProt Q16531+Q9NYV4, DEL396-705)", "T3 construct": "The kinase domain of human CDK12 (Uniprot: Q9NYV4; a.a; 715–1050); GST (N, cleaved yes); made in house; host or cells: Spodoptera frugiperda SF9 insect cells (Bac-to-Bac); CDK12/cyclin K co-infected with S. cerevisiae CAK1", "T3 sequence (Q16531 with tags, fused parts or gaps DEL396-705)": "as above", "T3 sequence (Q9NYV4 715-1050, stated change not applied)": "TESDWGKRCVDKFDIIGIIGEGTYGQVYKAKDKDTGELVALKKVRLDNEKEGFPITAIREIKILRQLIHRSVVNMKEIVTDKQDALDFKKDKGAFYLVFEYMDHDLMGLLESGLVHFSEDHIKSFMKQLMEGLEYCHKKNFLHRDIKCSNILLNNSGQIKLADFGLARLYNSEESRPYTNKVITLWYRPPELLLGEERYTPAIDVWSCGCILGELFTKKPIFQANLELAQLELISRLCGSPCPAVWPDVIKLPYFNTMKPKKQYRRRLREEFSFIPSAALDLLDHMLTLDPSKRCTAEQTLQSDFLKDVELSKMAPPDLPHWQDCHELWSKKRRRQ", "T3 sequence (O75909 11-267 partner limits assumed)": "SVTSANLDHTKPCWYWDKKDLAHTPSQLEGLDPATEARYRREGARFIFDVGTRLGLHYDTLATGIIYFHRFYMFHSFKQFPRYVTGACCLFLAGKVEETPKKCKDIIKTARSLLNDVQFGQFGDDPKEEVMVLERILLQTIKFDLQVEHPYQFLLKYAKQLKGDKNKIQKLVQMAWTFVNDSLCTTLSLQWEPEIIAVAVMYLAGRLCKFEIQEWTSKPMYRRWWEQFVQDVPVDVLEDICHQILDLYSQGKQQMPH", "assay": "Microscale thermophoresis, ternary complex formation", "details": "MST, labeled DDB1ΔBPB + CDK12/cyclin K", "description": "Finally, the capacity of small molecules to induce a ternary complex between CDK12/cyclin K and DDB1 in vitro was assessed by microscale thermophoresis (MST). Labeled DDB1ΔBPB was combined with purified CDK12/cyclin K, and fluorescence intensity was monitored with increasing compound concentrations.\nCell pellets were harvested 48 hours post infection via centrifugation and lysed in buffer A (50 mM Tris–HCl (pH 8.0), 200 mM NaCl, 10 mM imidazole, 0.5 mM tris(2-carboxyethyl) phosphine (TCEP)) supplemented with EDTA-free Pierce™ protease inhibitor tablet (Thermo Fisher Scientific). […] The concentrated protein at 2 mg mL^−1 was flash-frozen in liquid nitrogen and stored at −80 °C.\nFull-length S. cerevisiae CAK1 (Uniprot: P43568) with an N-terminal His6 tag was subcloned into pFastBac 1 vector. […] The eluted CDK12/cyclin K complex was concentrated to 2 mg mL^−1, flash-frozen in liquid nitrogen and stored at −80 °C.\nA protocol to assess ternary binding of molecular glues with CDK12/cycK and DDB1 by MST was established using published procedures for PROTAC interaction with bromodomains and E3 ubiquitin ligases.[38] His8-DDB1-ΔBPB was labeled with the MO-L018 Monolith™ His-tag Labeling Kit RED-tris-NTA 2nd Generation (NanoTemper Technologies) following the instruction manual. 100 nM dye was mixed with 200 nM DDB1 in 50 mM HEPES pH 7.5, 150 mM NaCl, 5% glycerol, 0.05% Tween, and incubated at room temperature for 30 min. […] MST traces were recorded using standard parameters: 5 s MST power off, 30 s MST power on and 5 s MST power off. Measurements were taken at −1 to 0 s (cold region) and 9–10 s (hot region). Data were analyzed using a fitting function derived from the law of mass action:1 [drawing 6] where f(c) is the fluorescence signal (Fnorm) at a given ligand concentration (c), B is Fnorm of fully liganded DDB1 at high ligand concentrations, U is Fnorm of DDB1 alone at low ligand concentrations, Kd is the dissociation constant or binding affinity, cT is the final concentration of DDB1 in the assay (Fig. 3G). For normalization, the data were first transformed using eqn (2) where y is the fraction bound, followed by fitting to eqn (3) (Fig. 5B–E).2 [drawing 7] 3 [drawing 8]"}},
  "data": [
    {"smiles": "Cn1cc(-n2cnc3c(NCc4nc5cc(Cl)c(Cl)cc5[nH]4)nc(N4CCOCC4)nc32)cn1", "note": "[SR-4835]", "values": [
      {"measurement": "binding to DDB1", "setting": "DDB1", "value": "did not show binding potential for DDB1"},
      {"measurement": "hydrodynamic radius (DLS)", "setting": "Cdk12/CycK and DDB1ΔB", "value": "significantly increased"}
    ]},
    {"smiles": "CN(C)C/C=C/C(=O)Nc1ccc(C(=O)N2CCC[C@@H](Nc3ncc(Cl)c(-c4c[nH]c5ccccc45)n3)C2)cc1", "note": "[THZ531, reference compound]", "values": [
      {"measurement": "ability to induce ternary complex", "setting": "CDK12/cyclin K + DDB1", "value": "inability to induce such a complex"}
    ]}
  ]
}
